≈ marks a conversion by molar mass, not a printed value. Like-named read-outs stand apart in the source and are kept apart here. Where a SMILES comes first, the peptide text is derived from it.
How the values were obtained:
[1] = system: three strains of bacteria (E. coli, P. aeruginosa and S. aureus); conditions: incubation period of 4 hours; cited from earlier work
[2] = Javadpour et al. 1996; cited from earlier work
bacteria = experiment: In vitro antibacterial properties under standard evaluation conditions (incubation of 18 hours); assay type: cell-based; conditions: concentrations described in the literature
Text: In contrast, I unexpectedly discovered that KLAKLAK (SEQ ID NO: 11) is capable of conferring antibacterial and/or antifungal properties on peptides comprising this motif and a peptide sequence not having antibacterial and/or antifungal properties.

C. neoformans Cn52D = assay type: cell-based, Cryptococcus neoformans
Description: D. Determination of the miminimal inhibitory concentration (MIC) in liquid medium for the Filamentous Fungi and Yeast
Peptide concentrations tested: from 0.2 μg/ml to 100 μg/ml.

[3] = system: Staphylococcus aureus ATCC 25923; assay type: cell-based
[4] = system: Escherichia coli ATCC 35218; assay type: cell-based
[5] = system: Enterococcus faecalis ATCC 29212; assay type: cell-based
[6] = system: Streptococcus pneumoniae ATCC 6303; assay type: cell-based
human erythrocytes = experiment: Hemolytic activity on human erythrocytes; conditions: 30 minutes, 0 to 500 μg/ml, absorbance 414 nm
Description: 1·10^6 human erythrocytes were incubated for 30 minutes with increasing concentrations of peptides (from 0 to 500 μg/ml) in a final volume of 150 μl. The hemolytic activity was evaluated by measurement of the absorbance (Abs) at the wave length 414 nm (Absorbance of hemoglobin) of the cellular supernatants. The absorbance of the supernatant after incubation of the erythrocytes in water corresponds to 100% (Abs100) of hemolysis and the absorbance of the supernatant after incubation of the erythrocytes in PBS corresponds to 0% of hemolysis (Abs0). The hemolytic activity of the peptides expressed in percentage corresponds to (Abspeptide−Abs0)/Abs100×100.

[7] = system: Pseudomonas aeruginosa ATCC 27853; assay type: cell-based
[8] = system: Citrobacter freundii ATCC 8090; assay type: cell-based
[9] = system: Serratia marcescens ATCC 8100; assay type: cell-based
[10] = system: Shigella flexneri ATCC 112022
[11] = system: Klebsiella pneumoniae ATCC 13883; assay type: cell-based
[12] = system: Enterococcus faecalis ATCC 19433; assay type: cell-based
[13] = system: Shigella sonnei ATCC 25931
Description: The MIC values were determined by the method of microdilution in liquid medium (NCCLS M7A5) for all of the bacterial species on 96-well polystyrene plates.
The culture medium was Mueller-Hinton broth (MHB) (pH≈7.2-7.4) with supplements according to the bacterial species studied: • MHB alone for the non-exigent species, • MHB+3% lysed horse blood for the streptococci, Listeria and Neisseria, • MHB+hemin 15 mg/l+NAD 15 mg/l+yeast extract 5 g/l for Haemophilus.
The bacterial inoculum was prepared from re-isolation performed on: • CLED agar: non-exigent strains, • blood agar+5% goat blood: streptococci, Listeria and Neisseria • chocolate agar+5% goat blood: Haemophilus, Neisseria.
The final inoculum was at ≈5·10^5 cfu/ml (colony forming units). 50 μl of bacterial inoculum was distributed per well containing an equal volume of the peptide solution diluted by half in the appropriate culture medium depending on the bacterial species (0.5 to 512 μg/ml). The cultures were incubated at 35° C. in ambient air for 16 to 20 hours (20 to 24 h for the streptococci).
Determination of the MBC values was performed after inhibition and reading of the MIC plates:
A volume of 3 μl of each concentration of antibiotic was deposited on the agar media: • MH: for the non-exigent strains, • MH+5% sheep blood: for the streptococci, Listeria, Bacillus and Neisseria, • HTM: for the Haemophilus.
The agars were incubated for 18 h at 35° C. in atmosphere: • in ambient air: for the non-exigent strains, • with 5-6% of CO2: for the streptococci, Listeria, Haemophilus and Neisseria.
The MBC is the lowest concentration of antibiotic that inhibits all bacterial growth on the transplant agar (<0. 1% of survivors).

[14] = system: Streptococcus agalactiae ATCC 13813; assay type: cell-based
[15] = system: Proteus vulgaris ATCC 13315; assay type: cell-based
[16] = system: Streptococcus pneumoniae ATCC 49619; assay type: cell-based
[17] = system: Enterobacter aerogenes ATCC 13048; assay type: cell-based
[18] = system: Micrococcus luteus ATCC 9341; assay type: cell-based
[19] = system: Enterococcus faecium ATCC 35667; assay type: cell-based
[20] = system: Acinetobacter baumanii ATCC 19606; assay type: cell-based
[21] = system: Haemophilus influenzae ATCC 49247; assay type: cell-based
[22] = In vivo toxicity: maximal tolerated dose (MTD); conditions: mouse, female OFI mice, intravenous perfusion approx. 15 minutes, 28 days after an injection
Description: The maximal tolerated dose (MTD) for each peptide was determined on female OFI mice at 28 days after an injection. The MTD was defined as the maximal nonlethal dose that could be injected. The peptides were administered by the intravenous route as a perfusion of approximately 15 minutes duration. The injection volume was 10 μl/g, the perfusion rate was 1.2 ml/hour and the excipient was a solution of NaCl at 0.8%.

[23] = system: Bacillus subtilis ATCC 6633; assay type: cell-based
Neisseria sica ATCC 9913 = assay type: cell-based
[24] = system: Escherichia coli ATCC 25922; assay type: cell-based
[25] = system: Staphylococcus epidermidis ATCC 12228; assay type: cell-based
[26] = system: Salmonella typhimurium ATCC 14028; assay type: cell-based
[27] = system: Streptococcus pyogenes ATCC 19615; assay type: cell-based
[28] = system: Enterobacter cloacae ATCC 23355; assay type: cell-based
[29] = system: Listeria monocytogenes ATCC 19115; assay type: cell-based
[30] = system: Staphylococcus aureus ATCC 14154; assay type: cell-based
[31] = system: Bacillus cereus ATCC 11778; assay type: cell-based

For “KLAKLAKKLAKLAK [14-mer linear peptide, literature 14-mer linear peptide (Javadpour et al. 1996)]”, the antibacterial activity [1] is given as “showed activity”, the hemolysis [2] is given as “nonhemolytic” and the antibacterial activity (bacteria) is given as “did not reveal any biological activity”.

Work on `CC(C)C[C@H](NC(=O)[C@H](CCCCN)NC(=O)CNC(=O)[C@H](CCCCN)NC(=O)[C@H](CCCCN)NC(=O)[C@H](CCCCN)NC(=O)[C@H](CCCNC(=N)N)NC(=O)[C@H](CCCCN)NC(=O)CNC(=O)[C@H](CCCCN)NC(=O)[C@H](C)NC(=O)[C@H](CC(C)C)NC(=O)[C@H](CCCCN)NC(=O)[C@H](C)NC(=O)[C@H](CC(C)C)NC(=O)[C@H](CCCCN)NC(=O)[C@H](CCCCN)NC(=O)[C@H](C)NC(=O)[C@H](CC(C)C)NC(=O)[C@H](CCCCN)NC(=O)[C@H](C)NC(=O)[C@H](CC(C)C)NC(=O)[C@@H](N)CCCCN)C(=O)NCC(=O)N[C@@H](CCCCN)C(=O)N[C@@H](CCCCN)C(=O)N[C@@H](CCCNC(=N)N)C(=O)N[C@@H](CC(=O)O)C(=O)N1CCC[C@H]1C(=O)O` [Peptide 3] (H-KLAKLAKKLAKLAKGKRKKKGKLGKKRDP-OH; N-terminus and C-terminus assumed) yielded an MIC (C. neoformans Cn52D; tested 0.2 to 100 μg/ml) of 1.56 mg/L (≈ 0.483 µM), an MIC [3] of 64 mg/L (≈ 19.8 µM) and an MIC [4] of 64 mg/L (≈ 19.8 µM). For the same compound, the MIC [5] was 64 mg/L (≈ 19.8 µM), the MIC [6] was over 500 mg/L and the hemolytic activity (human erythrocytes) was “did not exhibit hemolytic activity”. For the same compound, the MIC [7] was 64 mg/L (≈ 19.8 µM).

For `CC(C)C[C@H](NC(=O)CNC(=O)[C@H](CCCNC(=N)N)NC(=O)[C@H](CCCCN)NC(=O)[C@@H](N)C(C)C)C(=O)N[C@@H](CCCCN)C(=O)N[C@@H](CC(C)C)C(=O)N[C@@H](CCCCN)C(=O)N[C@@H](CC(C)C)C(=O)N[C@@H](C)C(=O)N[C@@H](CCCCN)C(=O)N[C@@H](CC(C)C)C(=O)N[C@@H](C)C(=O)N[C@@H](CCCCN)C(=O)N[C@@H](CCCCN)C(=O)N[C@@H](CC(C)C)C(=O)N[C@@H](C)C(=O)N[C@@H](CCCCN)C(=O)N[C@@H](CC(C)C)C(=O)N[C@@H](C)C(=O)N[C@@H](CCCCN)C(=O)O` [Peptide 1] (H-VKRGLKLKLAKLAKKLAKLAK-OH; N-terminus and C-terminus assumed), the MBC [8] was 16 mg/L (≈ 6.9 µM), the MIC [8] was 16 mg/L (≈ 6.9 µM) and the MBC [9] was over 512 mg/L. It also gave an MIC [9] of over 512 mg/L, an MBC [10] of 32 mg/L (≈ 13.8 µM) and an MIC [10] of 16 mg/L (≈ 6.9 µM). For the same compound, the MBC [11] was over 512 mg/L, the MIC [11] was over 512 mg/L and the MBC [12] was over 512 mg/L. For the same compound, the MIC [12] was over 512 mg/L, the MBC [13] was 4 mg/L (≈ 1.72 µM) and the MIC [13] was 4 mg/L (≈ 1.72 µM). It also gave an MBC [14] of 128 mg/L (≈ 55.2 µM), an MIC [14] of 128 mg/L (≈ 55.2 µM) and an MBC [15] of 256 mg/L (≈ 110 µM). It also gave an MIC [15] of 128 mg/L (≈ 55.2 µM), an MBC [16] of 256 mg/L (≈ 110 µM) and an MIC [16] of 128 mg/L (≈ 55.2 µM). The MBC [17] was 256 mg/L (≈ 110 µM), the MIC [17] was 256 mg/L (≈ 110 µM) and the MBC [18] was 4 mg/L (≈ 1.72 µM). For the same compound, the MIC [18] was 4 mg/L (≈ 1.72 µM), the MBC [19] was over 512 mg/L and the MIC [19] was 128 mg/L (≈ 55.2 µM). The MBC [20] was 16 mg/L (≈ 6.9 µM), the MIC [20] was 8 mg/L (≈ 3.45 µM) and the MBC [21] was 64 mg/L (≈ 27.6 µM). It also gave an MIC [21] of 64 mg/L (≈ 27.6 µM), an MIC (C. neoformans Cn52D) of 12.5 mg/L (≈ 5.39 µM) and an MBC [3] of 64 mg/L (≈ 27.6 µM). For the same compound, the MIC [3] was 64 mg/L (≈ 27.6 µM), the MTD at 28 days [22] was over 23.2 mg/kg and the MBC [23] was 8 mg/L (≈ 3.45 µM). The MIC [23] was 8 mg/L (≈ 3.45 µM), the MBC [4] was 8 mg/L (≈ 3.45 µM) and the MIC [4] was 8 mg/L (≈ 3.45 µM). It also gave an MBC [5] of over 512 mg/L, an MIC [5] of over 512 mg/L and an MBC (Neisseria sica ATCC 9913) of 128 mg/L (≈ 55.2 µM). The MIC (Neisseria sica ATCC 9913) was 4 mg/L (≈ 1.72 µM), the MBC [24] was 16 mg/L (≈ 6.9 µM) and the MIC [24] was 16 mg/L (≈ 6.9 µM). For the same compound, the MBC [25] was 4 mg/L (≈ 1.72 µM), the MIC [25] was 4 mg/L (≈ 1.72 µM) and the MBC [26] was 8 mg/L (≈ 3.45 µM). It also gave an MIC [26] of 8 mg/L (≈ 3.45 µM), an MBC [27] of 64 mg/L (≈ 27.6 µM) and an MIC [27] of 64 mg/L (≈ 27.6 µM). It also gave an MBC [6] of 64 mg/L (≈ 27.6 µM), an MIC [6] of 64 mg/L (≈ 27.6 µM) and an MBC [28] of 16 mg/L (≈ 6.9 µM). It also gave an MIC [28] of 16 mg/L (≈ 6.9 µM), an MBC [29] of 128 mg/L (≈ 55.2 µM) and an MIC [29] of 128 mg/L (≈ 55.2 µM). For the same compound, the MBC [30] was 128 mg/L (≈ 55.2 µM), the MIC [30] was 64 mg/L (≈ 27.6 µM) and the MBC [7] was over 512 mg/L. For the same compound, the MIC [7] was 512 mg/L (≈ 221 µM), the MBC [31] was 128 mg/L (≈ 55.2 µM) and the MIC [31] was 128 mg/L (≈ 55.2 µM).
